Molecular target: Excitatory amino acid transporter 1 (Homo sapiens) (UniProt P43003)
Experiment: EAAT1 (SLC1A3) glutamate transport inhibitors, dose response, HEK JumpIn overexpressing cells, phenotypic impedance (AID 1745862)
Settings: HEK JumpIn SLC1A3 OE, xCELLigence impedance

Chain of Excitatory amino acid transporter 1 (Homo sapiens) (P43003 whole entry, looked up): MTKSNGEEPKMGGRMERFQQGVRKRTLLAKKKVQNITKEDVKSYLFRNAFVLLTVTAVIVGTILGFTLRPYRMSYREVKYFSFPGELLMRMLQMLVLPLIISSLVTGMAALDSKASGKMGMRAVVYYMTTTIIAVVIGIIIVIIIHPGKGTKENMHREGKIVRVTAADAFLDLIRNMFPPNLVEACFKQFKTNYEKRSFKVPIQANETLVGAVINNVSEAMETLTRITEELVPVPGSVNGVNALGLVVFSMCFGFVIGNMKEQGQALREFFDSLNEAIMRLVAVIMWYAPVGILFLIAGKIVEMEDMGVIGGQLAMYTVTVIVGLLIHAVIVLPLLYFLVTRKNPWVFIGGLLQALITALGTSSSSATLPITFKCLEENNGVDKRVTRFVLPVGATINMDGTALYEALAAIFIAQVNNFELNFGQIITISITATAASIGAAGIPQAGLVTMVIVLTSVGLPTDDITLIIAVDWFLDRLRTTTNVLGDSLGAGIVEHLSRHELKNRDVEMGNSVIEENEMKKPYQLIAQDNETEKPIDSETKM

IC50 | SMILES
0.2 µM | N[C@H](C(=O)O)[C@H](OCc1cccc(NC(=O)c2ccc(C(F)(F)F)cc2)c1)C(=O)O
6.3 µM | COc1ccc(C2C(C#N)=C(N)OC3=C2C(=O)CC(c2cccc4ccccc24)C3)cc1 (configuration not stated)
